Target: cortisol synthase (CYP11B1) (Macaca fascicularis, UniProt A0A2K5ULY1)
Experiment: Inhibition of Cortisol Synthesis
Assay type: biochemical, cynomolgus monkey
Conditions: cynomolgus adrenal gland mitochondria; 150 units of CYP11B1, 11-deoxycortisol as substrate, cortisol measured as product
Protocol: The aldosterone synthase and cortisol synthase inhibition assays employ cynomolgus adrenal gland mitochondria as the source of aldosterone synthase (CYP11B2) and cortisol synthase (CYP11B1). […] Activity of CYP11B2 and CYP11B1 in these preparations is defined as the amount of enzyme that generates 1 pmol of product in one hour under the conditions described.
Assays are performed in 96-well format in a final volume of 60 μL/well, containing 100 mM potassium phosphate, pH 7.4, 1% (v/v) DMSO, and additionally, 2 μM of corticosterone and 50 units of CYP11B2 activity. Reactions are started by the addition of NADPH to 1 mM and allowed to proceed for 90 minutes at 37° C. Reactions are terminated by the addition of 60 μL of MeCN containing an internal standard for mass spectrometry. One hundred microliters are then transferred to a glass filter plate and centrifuged at 570×g for 5 minutes and the filtrate is collected. Reaction product aldosterone is quantified by mass spectrometry. To determine the assay blank value (0% activity), NADPH is omitted from some reactions.
Dose dependent inhibition is quantified by the inclusion of compound at various concentrations. Maximum activity (100%) is defined by reactions containing NADPH, but without compound.
Assays are performed as for aldosterone synthase except for the use of 150 units of CYP11B1, 11-deoxycortisol as substrate and cortisol measured as product.

| IC50 | Structure (SMILES) |
| --- | --- |
| 0.35 µM | NC(=O)c1cccc2c1OCC(c1cncc(C3(F)CCOCC3)c1)O2 (single isomer, unassigned) [Cpd 32B, 2-[5-(4-Fluoro-tetrahydro-pyran-4-yl)-pyridin-3-yl]-2,3-dihydro-benzo[1,4]dioxine-5-carboxylic acid amide] |
| > 30 µM | CNC(=O)c1cccc2c1OCC(c1cncc(OC3CCN(C(C)=O)CC3)c1)O2 (single isomer, unassigned) [Cpd 33A, 2-[5-(1-Acetyl-piperidin-4-yloxy)-pyridin-3-yl]-2,3-dihydro-benzo[1,4]dioxine-5-carboxylic acid methylamide] |
| > 30 µM | CNC(=O)c1cccc2c1OCC(c1cncc(OC3CCN(C(C)=O)CC3)c1)O2 (single isomer, unassigned) [Cpd 33B, 2-[5-(1-Acetyl-piperidin-4-yloxy)-pyridin-3-yl]-2,3-dihydro-benzo[1,4]dioxine-5-carboxylic acid methylamide] |
| 8.5 µM | N#Cc1cccc2c1OCC(c1cncc(CN3CCOC3=O)c1)O2 (single isomer, unassigned) [Cpd 34A, 2-[5-(2-Oxo-oxazolidin-3-ylmethyl)-pyridin-3-yl]-2,3-dihydro-benzo[1,4]dioxine-5-carbonitrile] |
| > 30 µM | N#Cc1cccc2c1OCC(c1cncc(CN3CCOC3=O)c1)O2 (single isomer, unassigned) [Cpd 34B, 2-[5-(2-Oxo-oxazolidin-3-ylmethyl)-pyridin-3-yl]-2,3-dihydro-benzo[1,4]dioxine-5-carbonitrile] |
| 0.53 µM | CN1C(=O)CCC1c1cncc(C2COc3c(C#N)cccc3O2)c1 (single isomer, unassigned) [Cpd 35A, 2-[5-(1-Methyl-5-oxo-pyrrolidin-2-yl)-pyridin-3-yl]-2,3-dihydro-benzo[1,4] dioxine-5-carbonitrile] |
| 6.2 µM | CN1C(=O)CCC1c1cncc(C2COc3c(C#N)cccc3O2)c1 (single isomer, unassigned) [Cpd 35B, 2-[5-(1-Methyl-5-oxo-pyrrolidin-2-yl)-pyridin-3-yl]-2,3-dihydro-benzo[1,4] dioxine-5-carbonitrile] |
| > 30 µM | N#Cc1cccc2c1OCC(c1cncc(CN3CCOCC3=O)c1)O2 (single isomer, unassigned) [Cpd 36A, 2-[5-(3-Oxo-morpholin-4-ylmethyl)-pyridin-3-yl]-2,3-dihydro-benzo[1,4]dioxine-5-carbonitrile] |
| 5.8 µM | N#Cc1cccc2c1OCC(c1cncc(CN3CCOCC3=O)c1)O2 (single isomer, unassigned) [Cpd 36B, 2-[5-(3-Oxo-morpholin-4-ylmethyl)-pyridin-3-yl]-2,3-dihydro-benzo[1,4]dioxine-5-carbonitrile] |
| 25 µM | CS(=O)(=O)Cc1cncc(C2COc3c(C#N)cccc3O2)c1 (single isomer, unassigned) [Cpd 37A, 2-(5-Methanesulfonylmethyl-pyridin-3-yl)-2,3-dihydro-benzo[1,4]dioxine-5-carbonitrile] |
| 8 µM | CS(=O)(=O)Cc1cncc(C2COc3c(C#N)cccc3O2)c1 (single isomer, unassigned) [Cpd 37B, 2-(5-Methanesulfonylmethyl-pyridin-3-yl)-2,3-dihydro-benzo[1,4]dioxine-5-carbonitrile] |
| 15 µM | CC(=O)N1CCC(Oc2cncc(C3COc4c(C#N)cccc4O3)c2)CC1 (single isomer, unassigned) [Cpd 38A, 2-[5-(1-Acetyl-piperidin-4-yloxy)-pyridin-3-yl]-2,3-dihydro-benzo[1,4]dioxine-5-carbonitrile] |
| 0.7 µM | CC(=O)N1CCC(Oc2cncc(C3COc4c(C#N)cccc4O3)c2)CC1 (single isomer, unassigned) [Cpd 38B, 2-[5-(1-Acetyl-piperidin-4-yloxy)-pyridin-3-yl]-2,3-dihydro-benzo[1,4]dioxine-5-carbonitrile] |
| 7.3 µM | N#Cc1cccc2c1OCC(c1cncc(CNC(=O)C3CC3)c1)O2 (single isomer, unassigned) [Cpd 39A, Cyclopropanecarboxylic acid [5-(5-cyano-2,3-dihydro-benzo[1,4]dioxin-2-yl)-pyridin-3-ylmethyl]-amide] |
| > 30 µM | N#Cc1cccc2c1OCC(c1cncc(CNC(=O)C3CC3)c1)O2 (single isomer, unassigned) [Cpd 39B, Cyclopropanecarboxylic acid [5-(5-cyano-2,3-dihydro-benzo[1,4]dioxin-2-yl)-pyridin-3-ylmethyl]-amide] |
| > 30 µM | N#Cc1cccc2c1OCC(c1cncc(-c3ccc(S(N)(=O)=O)cc3)c1)O2 (single isomer, unassigned) [Cpd 40A, 4-[5-(5-Cyano-2,3-dihydro-benzo[1,4]dioxin-2-yl)-pyridin-3-yl]-benzenesulfonamide] |

| IC50 | Structure (SMILES) |
| --- | --- |
| 11 µM | N#Cc1cccc2c1OCC(c1cncc(-c3ccc(S(N)(=O)=O)cc3)c1)O2 (single isomer, unassigned) [Cpd 40B, 4-[5-(5-Cyano-2,3-dihydro-benzo[1,4]dioxin-2-yl)-pyridin-3-yl]-benzenesulfonamide] |
| 24 µM | N#Cc1cccc2c1OCC(c1cncc(CN3CCCCS3(=O)=O)c1)O2 (single isomer, unassigned) [Cpd 41A, 2-[5-(1,1-Dioxo-1lambda6-[1,2]thiazinan-2-ylmethyl)-pyridin-3-yl]-2,3-dihydro-benzo[1,4]dioxine-5-carbonitrile] |
| 3.9 µM | N#Cc1cccc2c1OCC(c1cncc(CN3CCCCS3(=O)=O)c1)O2 (single isomer, unassigned) [Cpd 41B, 2-[5-(1,1-Dioxo-1lambda6-[1,2]thiazinan-2-ylmethyl)-pyridin-3-yl]-2,3-dihydro-benzo[1,4]dioxine-5-carbonitrile] |
| 18 µM | CN(C)C(=O)COCc1cncc(C2COc3c(C#N)cccc3O2)c1 (single isomer, unassigned) [Cpd 42A, 2-[5-(5-Cyano-2,3-dihydro-benzo[1,4]dioxin-2-yl)-pyridin-3-ylmethoxy]-N,N-dimethyl-acetamide] |
| 1.3 µM | CN(C)C(=O)COCc1cncc(C2COc3c(C#N)cccc3O2)c1 (single isomer, unassigned) [Cpd 42B, 2-[5-(5-Cyano-2,3-dihydro-benzo[1,4]dioxin-2-yl)-pyridin-3-ylmethoxy]-N,N-dimethyl-acetamide] |
| 22 µM | N#Cc1cccc2c1OCC(c1cncc(CC(=O)N3CCOCC3)c1)O2 (single isomer, unassigned) [Cpd 43A, 2-[5-(2-Morpholin-4-yl-2-oxo-ethyl)-pyridin-3-yl]-2,3-dihydro-benzo[1,4]dioxine-5-carbonitrile] |
| > 30 µM | N#Cc1cccc2c1OCC(c1cncc(CC(=O)N3CCOCC3)c1)O2 (single isomer, unassigned) [Cpd 43B, 2-[5-(2-Morpholin-4-yl-2-oxo-ethyl)-pyridin-3-yl]-2,3-dihydro-benzo[1,4]dioxine-5-carbonitrile] |
| 2.2 µM | CS(=O)(=O)COc1cncc(C2COc3c(C#N)cccc3O2)c1 (single isomer, unassigned) [Cpd 44A, 2-(5-Methanesulfonylmethoxy-pyridin-3-yl)-2,3-dihydro-benzo[1,4]dioxine-5-carbonitrile] |
| 13 µM | CS(=O)(=O)COc1cncc(C2COc3c(C#N)cccc3O2)c1 (single isomer, unassigned) [Cpd 44B, 2-(5-Methanesulfonylmethoxy-pyridin-3-yl)-2,3-dihydro-benzo[1,4]dioxine-5-carbonitrile] |
| 0.21 µM | CCOc1cncc(C2COc3c(cccc3C(N)=O)O2)c1 (single isomer, unassigned) [Cpd 45A, 2-(5-ethoxy-pyridin-3-yl)-2,3-dihydro-benzo[1,4]dioxine-5-carboxylic acid amide] |
| 0.28 µM | CCOc1cncc(C2COc3c(cccc3C(N)=O)O2)c1 (single isomer, unassigned) [Cpd 45B, 2-(5-ethoxy-pyridin-3-yl)-2,3-dihydro-benzo[1,4]dioxine-5-carboxylic acid amide] |
| 7 µM | NC(=O)c1cccc2c1OCC(c1cncc(O[C@@H]3CCOC3)c1)O2 (single isomer, unassigned) [Cpd 46A] |
| 4.2 µM | NC(=O)c1cccc2c1OCC(c1cncc(O[C@@H]3CCOC3)c1)O2 (single isomer, unassigned) [Cpd 46B] |
| 8.5 µM | NC(=O)c1cccc2c1OCC(c1cncc(OC3CCOCC3)c1)O2 (single isomer, unassigned) [Cpd 47A, 2-[5-(Tetrahydro-pyran-4-yloxy)-pyridin-3-yl]-2,3-dihydro-benzo[1,4]dioxine-5-carboxylic acid amide] |
| 1.2 µM | NC(=O)c1cccc2c1OCC(c1cncc(OC3CCOCC3)c1)O2 (single isomer, unassigned) [Cpd 47B, 2-[5-(Tetrahydro-pyran-4-yloxy)-pyridin-3-yl]-2,3-dihydro-benzo[1,4]dioxine-5-carboxylic acid amide] |
| 3.1 µM | CC(C)C(=O)N1CCC(Oc2cncc(C3COc4c(cccc4C(N)=O)O3)c2)CC1 (single isomer, unassigned) [Cpd 48A, 2-[5-(1-isobutyryl-piperidin-4-yloxy)-pyridin-3-yl]-2,3-dihydro-benzo[1,4]dioxine-5-carboxylic acid amide] |

Source: patent US9745289B2, “Aldosterone synthase inhibitors” (Boehringer Ingelheim International GmbH, priority 2014, dated 2017)
